Where a name gives a salt, the structure may show the parent alone.
Legend:
5-HT2A receptors = target: T1, 5-HT2A receptors (Rattus norvegicus, UniProt P14842); test: Inhibition of the binding of [3H]Ketanserin to 5-HT2A receptors; conditions: [3H]Ketanserin 0.50 nM, membranes from rat brain (cortex); read-out: IC50 (nM) at the 5HT2A-receptor
T1 construct: membranes from rat brain (cortex) in vitro; from tissue; host or cells: rat brain cortex membranes
Experimental: Inhibition of the Binding of [^3H]Ketanserin to 5-HT2A Receptors
The compounds were tested with respect to their affinity for 5-HT2A receptors by determining their ability to inhibit binding of [^3H]Ketanserin (0.50 nM) to membranes from rat brain (cortex) in vitro. Method described in Sanchez et al. Drug Dev. Res. 1991, 22, 239-250.

[1] = target: T2, human cloned dopamine D4.2 receptors (Homo sapiens, UniProt P21917, DEL265-296); test: Inhibition of the binding of [3H]YM-09151-2 to D4.2 receptors; conditions: [3H]YM-09151-2 0.06 nM; for % inhib. at the D4-receptor: % inhibition of binding at 50 nM; for IC50: membranes of CHO-cells, read-out: IC50 (nM) at the D4-receptor
T2 construct: expressed in transfected cells; host or cells: CHO cells
T2 sequence (P21917 with tags, fused parts or gaps DEL265-296): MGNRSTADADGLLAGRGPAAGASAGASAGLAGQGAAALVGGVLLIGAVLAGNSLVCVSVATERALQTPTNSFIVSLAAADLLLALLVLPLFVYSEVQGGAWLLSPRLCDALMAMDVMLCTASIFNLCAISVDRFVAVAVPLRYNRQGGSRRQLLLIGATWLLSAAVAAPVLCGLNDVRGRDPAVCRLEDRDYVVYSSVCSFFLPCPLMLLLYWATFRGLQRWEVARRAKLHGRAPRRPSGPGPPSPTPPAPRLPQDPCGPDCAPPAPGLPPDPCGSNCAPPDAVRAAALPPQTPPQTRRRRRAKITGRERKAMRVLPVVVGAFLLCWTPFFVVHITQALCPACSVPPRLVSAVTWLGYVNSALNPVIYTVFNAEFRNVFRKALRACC
Text: The method is modified from NEN Life Science Products, Inc., technical data certificate PC2533-10/96.

D4 receptor = target: T3, D4 receptor (Homo sapiens, UniProt P21917); conditions: various in vitro efficacy assays (Gazi et al.); cited from earlier work
T3 sequence (P21917 1-419): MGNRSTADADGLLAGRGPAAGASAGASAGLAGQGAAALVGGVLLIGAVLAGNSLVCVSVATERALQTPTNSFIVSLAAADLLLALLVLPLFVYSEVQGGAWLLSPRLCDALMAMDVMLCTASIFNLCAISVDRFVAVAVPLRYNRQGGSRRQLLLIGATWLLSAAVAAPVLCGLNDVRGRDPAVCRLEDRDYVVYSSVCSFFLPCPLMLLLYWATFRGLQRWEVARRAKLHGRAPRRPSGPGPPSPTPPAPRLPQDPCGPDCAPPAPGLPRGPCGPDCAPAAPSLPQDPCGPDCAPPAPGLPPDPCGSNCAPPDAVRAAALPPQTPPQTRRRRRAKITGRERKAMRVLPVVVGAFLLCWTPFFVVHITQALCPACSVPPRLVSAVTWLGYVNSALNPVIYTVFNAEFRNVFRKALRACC

T1 sequence (P14842 whole entry): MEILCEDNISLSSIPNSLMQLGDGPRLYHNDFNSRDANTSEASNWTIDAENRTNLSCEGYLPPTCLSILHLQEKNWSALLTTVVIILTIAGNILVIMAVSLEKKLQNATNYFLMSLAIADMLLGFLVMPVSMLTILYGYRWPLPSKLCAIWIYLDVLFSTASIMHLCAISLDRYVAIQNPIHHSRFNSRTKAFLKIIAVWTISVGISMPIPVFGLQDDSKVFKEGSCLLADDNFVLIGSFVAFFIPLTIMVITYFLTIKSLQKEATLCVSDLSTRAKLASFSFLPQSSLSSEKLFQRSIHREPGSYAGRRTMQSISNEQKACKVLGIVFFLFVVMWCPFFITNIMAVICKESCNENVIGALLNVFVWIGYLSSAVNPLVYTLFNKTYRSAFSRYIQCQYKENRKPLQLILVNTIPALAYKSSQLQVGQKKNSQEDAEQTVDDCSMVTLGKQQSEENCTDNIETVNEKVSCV

Compound	melting point [°C]	IC50 (5-HT2A receptors) [nM]	% inhib. at the D4-receptor [1] [%]	IC50 [1] [nM]	Functional activity at D4 receptor (D4 receptor)
CC(=O)N1CC(CCN2CCN(c3ccc(Cl)c(Cl)c3)CC2)c2ccccc21 (single isomer, unassigned; (+)) (as salt: hydrochloride) [Compound 1d, (+)-1-[2-(1-Acetyl-2,3-dihydro-1H-indol-3-yl)ethyl]-4-(3,4-dichlorophenyl)piperazine, hydrochloride]	184 to 186				
CC(=O)N1CC(CCN2CCN(c3ccc(C)cc3)CC2)c2ccccc21.Cl (single isomer, unassigned; (+)) [Compound 1b, (+)-1-[2-(1-Acetyl-2,3-dihydro-1H-indol-3-yl)ethyl]-4-(4-methylphenyl)piperazine, hydrochloride]	217 to 220	15	88	< 50	
CC(C)Oc1cccnc1N(C)C1CCN(Cc2ccccc2)CC1 [Compound U-101958]					partial D4 receptor agonists
CC(=O)N1CC(CCN2CCN(c3ccc(Cl)c(Cl)c3)CC2)c2ccccc21 (single isomer, unassigned; (+)) [Compound 1d, (+)-1-[2-(1-Acetyl-2,3-dihydro-1H-indol-3-yl)ethyl]-4-(3,4-dichlorophenyl)piperazine, hydrochloride]		21	86	< 50	
CC(=O)N1CC(CCN2CCN(c3ccc(Br)cc3)CC2)c2ccccc21 (stereo not drawn) [Compound 1e, (+)-]-[2-(1-Acetyl-2,3-dihydro-1H-indol-3-yl)ethyl]-4-(4-bromophenyl)piperazine, hydrochloride]		17	95	< 50	
CC(=O)N1CC(CCN2CCN(c3ccc(C)c(C)c3)CC2)c2ccccc21.Cl (single isomer, unassigned; (+)) [Compound 1a, (+)-1-[2-(1-Acetyl-2,3-dihydro-1H-indol-3-yl)ethyl]-4-(3,4-dimethylphenyl)piperazine, hydrochloride]		5	88	< 50	
CC(=O)N1CC(CCN2CCC(c3ccc(Cl)c(Cl)c3)CC2)c2ccccc21 (centres unmarked) [Compound 1g, 1-[2-(1-Acetyl-2.3-dihydro-1H-indol-3-yl)ethyl]-4-(3.4-dichlorophenyl)piperidine, hydrochloride]		21		5.4	
CC(=O)N1CC(CCN2CCC(c3ccc(C)cc3)CC2)c2ccccc21 (single isomer, unassigned; (+)) [Compound 1c, (+)-1-[2-(1-Acetyl-2,3-dihydro-1H-indol-3-yl)ethyl]-4-(4-methylphenyl)piperidine]	112 to 114	17	76	< 50	
CC(=O)N1CC(CCN2CC=C(c3ccc(Cl)c(Cl)c3)CC2)c2ccccc21 (centres unmarked) [Compound 1f, ]-[2-(1-Acetyl-2,3-dihydro-1H-indol-3-yl)ethyl]-4-(3,4-dichlorophenyl)-3,6-dihydro-2H-pyridine, hydrochloride]		27		13	
